Tests used:
[1] = molecular target: T1, recombinant human Polq polymerase domain (residues 1792-2590) (Homo sapiens, UniProt O75417); assay: Cy5 fluorescence assay of Polq polymerase enzymatic activity; format: biochemical; conditions: Polq IC50, 5 nM Polq polymerase domain, 60 nM primer-template, 50 uM dNTPs, 37° C., 18 min, 2.5% DMSO, triplicate
T1 sequence (O75417 1792-2590): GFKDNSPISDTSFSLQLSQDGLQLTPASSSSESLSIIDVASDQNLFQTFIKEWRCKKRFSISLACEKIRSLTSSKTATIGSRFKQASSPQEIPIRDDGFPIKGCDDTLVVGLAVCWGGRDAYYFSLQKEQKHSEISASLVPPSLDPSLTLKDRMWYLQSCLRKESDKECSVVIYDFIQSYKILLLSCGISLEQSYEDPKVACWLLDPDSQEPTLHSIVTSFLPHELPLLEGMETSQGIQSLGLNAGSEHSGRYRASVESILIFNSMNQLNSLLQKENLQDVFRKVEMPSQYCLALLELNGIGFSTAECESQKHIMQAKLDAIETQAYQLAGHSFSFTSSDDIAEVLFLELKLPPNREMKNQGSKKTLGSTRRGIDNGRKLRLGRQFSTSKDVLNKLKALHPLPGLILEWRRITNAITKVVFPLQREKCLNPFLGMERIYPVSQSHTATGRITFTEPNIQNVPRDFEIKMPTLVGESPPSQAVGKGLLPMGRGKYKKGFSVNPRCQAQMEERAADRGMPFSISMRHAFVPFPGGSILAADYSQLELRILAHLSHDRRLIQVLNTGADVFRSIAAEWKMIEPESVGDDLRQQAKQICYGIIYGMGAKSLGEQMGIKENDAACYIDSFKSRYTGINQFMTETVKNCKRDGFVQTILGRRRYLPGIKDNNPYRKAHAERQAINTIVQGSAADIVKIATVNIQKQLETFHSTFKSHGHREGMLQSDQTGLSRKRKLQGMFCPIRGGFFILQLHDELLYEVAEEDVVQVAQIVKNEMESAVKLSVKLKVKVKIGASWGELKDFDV
Procedure: The following Cy5 fluorescence assay was used to measure the ability of compounds to inhibit Polq polymerase domain in vitro. The fluorescent based assay was performed as follows: 60 nM of the pre-annealed primer-template containing a 5′ Cy5 fluorophore conjugated template strand (SEQ ID NO 6: 5′-/5Cy5/ […] GGACAG-3′), a downstream complementary oligo conjugated with a 3′ Blackhole quencher (SEQ ID NO 7: 5′-CTAAGCTCACAGTG/3IAbRQSp/-3′) and a primer strand (SEQ ID NO 8: 5′-CTGTCCTGCATGATG-3′) was mixed with 50 uM 2′-deoxyribonucleoside triphosphates (dNTPs), 0.1 mg/mL Bovine serum albumin (BSA), 0.01% NP-40, 10% glycerol, 1 mM dithiothreitol (DTT), 10 mM MgCl2, 25 mM TrisHCl pH 7.8 in the presence of 2.5% DMSO with or without various concentrations (7-point dilution series) of Polq small molecule inhibitors represented by Formula I at 37° C. in a volume of 40 μL.

[2] = tested on: BRCA2-WT HCT116 cells; assay: Survival of BRCA2-WT HCT116 cells; format: cell-based; conditions: n=3
[3] = tested on: BRCA2-null HCT116 cells; assay: Survival of BRCA2-null HCT116 cells; format: cell-based; conditions: as compared to BRCA2-WT HCT116 cells; n=3
[4] = tested on: BRCA2-WT DLD1 cells; assay: Survival of BRCA2-WT DLD1 cells; format: cell-based; conditions: n=3
[5] = tested on: BRCA2-null DLD1 cells; assay: Survival of BRCA2-null DLD1 cells; format: cell-based; conditions: as compared to BRCA2-WT DLD1 cells; n=3

Row | SMILES | IC50 [1] [nM] | resistance of BRCA2-WT HCT116 cells to Polqi [2] | survival of BRCA2-null HCT116 cells [3] | resistance of BRCA2-WT DLD1 cells to Polqi [4] | survival of BRCA2-null DLD1 cells [5]
1 | [2H]C([2H])([2H])N(C(=O)Oc1c(-c2cn[nH]c2)cc(C(F)(F)F)cc1C(F)(F)F)c1ccc(F)cc1 [Example 26, 2-(1H-pyrazol-4-yl)-4,6-bis(trifluoromethyl)phenyl 4-fluorophenyl(methyl-d3)carbamate] | 2 | mostly resistant | significantly reduced | mostly resistant | significantly reduced
2 | [2H]C([2H])([2H])N(C(=O)Oc1c(-c2cnn(CC(N)=O)c2)cc(C(F)(F)F)cc1C(F)(F)F)c1ccc(F)cc1 [Example 27, 2-(1-(2-amino-2-oxoethyl)-1H-pyrazol-4-yl)-4,6-bis(trifluoromethyl)phenyl 4-fluorophenyl(methyl-d3)carbamate] | 1.8 | mostly resistant | significantly reduced | mostly resistant | significantly reduced
3 | [2H]C([2H])([2H])N(C(=O)Oc1c(-n2cnn(CC(O)CNC)c2=O)cc(C(F)(F)F)cc1C(F)(F)F)c1ccc(F)cc1 (stereo not shown) [Example 35, 2-{1-[2-hydroxy-3-(methylamino)propyl]-5-oxo-4,5-dihydro-1H-1,2,4-triazol-4-yl}-4,6-bis(trifluoromethyl)phenyl N-(4-fluorophenyl)-N-(methyl-d3)carbamate] | 104 |  |  |  | 
4 | CN(C(=O)Oc1c(-c2cn(CCOCCOCCC(=O)O)nn2)cc(C(F)(F)F)cc1C(F)(F)F)c1ccc(F)cc1 [Example 36, 3-(2-(2-(4-(2-(((4-fluorophenyl)(methyl)carbamoyl)oxy)-3,5-bis(trifluoromethyl)phenyl)-1H-1,2,3-triazol-1-yl)ethoxy)ethoxy)propanoic Acid] | 3 |  |  |  | 
5 | Cc1ncsc1-c1ccc(CNC(=O)[C@@H]2C[C@@H](O)CN2C(=O)[C@@H](NC(=O)CCOCCOCCn2cc(-c3cc(C(F)(F)F)cc(C(F)(F)F)c3OC(=O)N(C)c3ccc(F)cc3)nn2)C(C)(C)C)cc1 [Example 37, 2-(1-(2-(2-(3-(((S)-1-((2S,4R)-4-hydroxy-2-((4-(4-methylthiazol-5-yl)benzyl)carbamoyl)pyrrolidin-1-yl)-3,3-dimethyl-1-oxobutan-2-yl)amino)-3-oxopropoxy)ethoxy)ethyl)-1H-1,2,3-triazol-4-yl)-4,6-bis(trifluoromethyl)phenyl (4-fluorophenyl)(methyl)carbamate] | 4.6 |  |  |  | 

Reference: patent US20260317313A1, “DNA Polymerase Theta Inhibitors Containing Non-Saturated 5-Membered Heterocyclic Rings and Use Thereof” (Thomas Jefferson University, priority 2022, published 2026)
